The values below come from US4963570A, “1-(acetylaminophenyl)-2-aminopropanone derivatives and pharmaceutical compositions thereof” (Laboratoire L. Lafon, priority 1983, dated 1990).

Data set [1] concerns mice. The data set is described as follows: action on the behavioral despair. The data set is classed as in vivo, mouse. Particulars: i.p., dose not stated. The source says:
Half an hour after they have received CRL 41 224, groups of 6 mice are placed in a beaker filled with water to a height of 6 cm. The total period of immobility between the 2nd and 6th minutes following immersion is noted.

Data set [2] relates to rats. The data set can be described thus: overall behavior and reactivities in rats. In kind it is in vivo, rat. Particulars: i.p., dose not stated. The protocol: (§1) Groups of three animals are observed before and then 0.25 hour, 0.50 hour, 1 hour, 2 hours, 3 hours and 24 hours after the administration of CRL 41 224.
Data set [3] concerns mice. The data set is described as follows: action on the spontaneous motility (actimeter). The data set is classed as in vivo, mouse. Conditions: mice, i.p.; dose not stated. How it is done: 0.5 hour after they have received CRL 41 224, the mice (6 per dose, 12 control animals) are placed in an actimeter, where their motility is recorded for 30 minutes.
In data set [4] the test system is rats. The data set is described as follows: interaction with apomorphine in rats. The data set is classed as in vivo, rat. Particulars: i.p., dose not stated. The protocol: CRL 41 224 is administered to groups of 6 rats 0.5 hour before the subcutaneous injection of 0.5 mg/kg of apomorphine.
Data set [5] relates to mice. The data set is described as follows: interaction with apomorphine in mice. In kind it is in vivo, mouse. Conditions: i.p. The protocol:
Groups of 6 mice receive CRL 41 224 0.5 hour before the subcutaneous injection of 1 or 16 mg/kg of apomorphine.

Data set [6] has as its system mice. The data set can be described thus: overall behavior and reactivities in mice. In kind it is in vivo, mouse. Particulars: mice, i.p.; dose not stated. The protocol:
as §1

For data set [7], the system named is mice. The data set is described as follows: four plate test, traction and electric shock. The data set is classed as in vivo, mouse. Conditions: i.p., dose not stated. How it is done:
The test is performed on groups of 10 mice 30 minutes after the administration of CRL 41 224.

Data set [8] deals with male mice. The data set is described as follows: acute toxicity, intraperitoneal (lethal doses). The data set is classed as in vivo, mouse. Particulars: i.p. How it is done:
(§2) By intraperitoneal administration to male mice, the LD-30 (lethal dose for 30% of the animals tested) is of the order of 128 mg/kg and the LD-50 is of the order of about 200 mg/kg.

Data set [9] is described as follows: acute toxicity, intraperitoneal (lethal doses). The data set is classed as in vivo, mouse. Particulars: mouse, in vivo, ip; male mice. The protocol:
as §2

For data set [10], the system named is mice. The data set is described as follows: interaction with barbital. Particulars: i.p. The data set is classed as in vivo, mouse. How it is done: Half an hour after the administration of CRL 41 224, groups of 10 mice receive an intraperitoneal injection of barbital (220 mg/kg).
The test system of data set [11] is mice. The data set can be described thus: interaction with oxotremorine. In kind it is in vivo, mouse. Conditions: i.p. The protocol:
CRL 41 224 is administered to groups of 6 mice 0.5 hour before the intraperitoneal injection of 0.5 mg/kg of oxotremorine.

Data set [12] has as its system mice. The data set can be described thus: motility reduced by hypoxic aggression. The data set is classed as in vivo, mouse. Particulars: i.p., dose not stated. The protocol: Half an hour after they have received CRL 41 224, the mice (10 per dose, 20 control animals) are subjected to acute hypobaric anoxia [pressure reduction of 600 mm Hg (i.e. about 8×10^4 Pa) in 90 seconds; release of vacuum in 45 seconds] and are then placed in an actimeter, where their motility is recorded for 10 minutes.

In another data set the test system is CNS. The data set can be described thus: overall neuropsychopharmacological (CNS) profile. The data set is classed as in vivo, mouse; rat. Particulars: i.p. The protocol:
The neuropsychopharmacological study of CRL 41 219 was carried out as indicated above for CRL 41 224.
The neuropsychopharmacological study of CRL 41 220 was carried out in accordance with the procedures given above for CRL 41 224.

Data set [13] has as its system mice. The data set can be described thus: motility reduced by habituation to the enclosure. In kind it is in vivo, mouse. Conditions: i.p. How it is done: After they have stayed in the actimeters for 18 hours, the mice (6 per dose, 12 control animals) receive CRL 41 224. They are immediately returned to their respective enclosures and, half an hour later, their motility is recorded for 30 minutes.

Data set [14] deals with mice. The data set can be described thus: interaction with reserpine. Conditions: i.p. The data set is classed as in vivo, mouse. The protocol:
Four hours after the intraperitoneal injection of 2.5 mg/kg of reserpine, groups of 6 mice receive CRL 41 224.

For data set [15], the system named is mice. The data set is described as follows: asphyxiant anoxia (gallamine triiodoethylate). Particulars: i.p.; dose not stated. The data set is classed as in vivo, mouse. The protocol: Groups of 10 mice receive CRL 41 224 half an hour before the intraperitoneal administration of 32 mg/kg of gallamine triiodoethylate (reference curarizing agent).
In data set [16] the test system is peripheral α-adrenergic stimulation. The data set can be described thus: signs of peripheral adrenergic stimulation. The data set is classed as in vivo, mouse; rat. Conditions: i.p.; dose not stated. The protocol: as §1
The subject of data set [17] is rats. The data set is described as follows: interaction with amphetamine. In kind it is in vivo, rat. Particulars: rats, i.p.; dose not stated. How it is done:
Amphetamine (2 mg/kg) is injected intraperitoneally into groups of 6 rats 30 minutes after the administration of CRL 41 224.

Data set [18] deals with male mice. The data set can be described thus: interaction with proadifen: motility. In kind it is in vivo, mouse. Particulars: i.p., administered alone. How it is done: (§3) Two series of experiments were carried out. In the first one, male mice (12 per dose, 12 control animals) were administered per I.P. route (i) with proadifen (75 mg/kg) at T-3 h, then (ii) with CRL 41 152 at T-0.5 h. At T=0 the mice were placed in actimeters, where their motility was recoded for 0.5 h. In the second one male mice (12 per dose, 12 control animals) were administered with proadifen and CRL 41 152 as indicated hereinabove, then subcutaneously with apomorphine (16 mg/kg) at T=0 in order to appreciate the potential variation of the hypothermia induced by apomorphine.
(§4) In these two series CRL 41 152, in solution in distilled water, was administered per I.P. route to male mice in a volume of 20 ml/kg.

Data set [19] concerns male mice. The data set can be described thus: interaction with proadifen: hypothermia induced by apomorphine. In kind it is in vivo, mouse. The protocol:
as §3, §4

For the next data set, the system named is immunological properties. The data set is described as follows: immunological properties, overall. Particulars: dose not stated. In kind it is in vivo. The source says:
The present 1-(acetylaminophenyl)-2-aminopropanone derivatives are useful in therapy. They all act on the CNS, more precisely as antidepressants. They have a stimulant or excitant component in their neuropsychopharmacological profile.

Data set [20] concerns spleen cells expressing a direct IgM antibody response. The data set is described as follows: test for cells forming lysis areas (PFC IgM, Cunningham). Conditions: 1 mg/kg. The data set is classed as in vivo, mouse.
The test system of data set [21] is delayed hypersensitivity to the red blood corpuscles of sheep. The data set can be described thus: delayed hypersensitivity to the red blood corpuscles of sheep (Miller). In kind it is in vivo. Particulars: oral, 10 to 100 mg/kg.

Each structure is given as a SMILES string. “Also recorded” adds a separate entry of the source. Counter-ions that a name gives are not always drawn.

Usually LD50 stands for the dose at which mortality reaches 50%. A high value points to a less toxic substance. Take `CC(=O)Nc1ccc(C(=O)C(C)N2CCCC2)cc1Cl` (stereo not drawn) [CRL 41 219, 1-(4-acetylamino-3-chlorophenyl)-2-pyrrolidinopropanone hydrochloride]: the “period of immobility or "despair"” value in the data set on mice [1] is listed as “reduction in the immobility”. In addition, in the data set with rats [2], the excitation in rats entry is “excitation (with hyperractivity)” and the “stereotype movements in rats” value is listed as “presence of stereotype movements”. Moreover, in the data set with mice [3], the “spontaneous motility / motor activity” value is “hyperactivity, increase in the spontaneous motor activity”. Besides, the “stereotypies induced by apomorphine” value with rats [4] is listed as “potentiation of the stereotypies induced by apomorphine”. For the same molecule, in the data set with mice [5] (dose not stated), the “hypothermia induced by apomorphine” value is “antagonism of the hypothermia induced by apomorphine”. Also, in the data set with mice [6], the excitation in mice entry is reported as “excitation with hyperreactivity” and the “stereotype movements in mice” value is on record as “late appearance of stereotypies”. Also, the “lethal effects of electric shock” value with mice [7] is recorded as “aggravation of the lethal effects of electric shock”. Besides, the “number of punished passes in the 4 plate test” value in the data set with mice [7] (mice) is given as “increase in the number of punished passes”. Moreover, in the data set with male mice [8], the LD-30 is reported as approximately 128 mg/kg. In data set [9], the LD50 was approximately 200 mg/kg. In the data set with mice [10] (dose not stated), the “sleep induced by barbital” value is “antagonism of the sleep induced by barbital”. In addition, in the data set on mice [11] (dose not stated), the “hypothermia induced by oxotremorine” value is “antagonism of the hypothermia induced by apomorphine, reserpine and oxotremorine”; the “trembling caused by oxotremorine” value is on record as “antagonism of the trembling caused by oxotremorine”. Besides, in the data set on mice [12], the “motor recovery after hypoxic aggression” value was “improvement in the motor recovery after hypoxic aggression”. The “overall action on the CNS” value with CNS (mice and rats, dose not stated) is “antidepressant, stimulant and arousing properties”. Besides, the “motor activity after habituation to the enclosure” value in the data set with mice [13] (dose not stated) is on record as “resumption in the motor activity after habituation to the enclosure”. Moreover, in the data set on mice [14] (dose not stated), the “hypothermia induced by reserpine” value is “antagonism of the hypothermia induced by apomorphine, reserpine” and the “ptosis induced by reserpine” value is reported as “antagonism of the ptosis induced by reserpine”. In the data set on mice [15], the “time taken for convulsions and death to occur following asphyxiant anoxia” value was “reduction in the time taken for convulsions and death to occur following asphyxiant anoxia”. For the same molecule, in [16], the mydriasis entry is given as “mydriasis” and the “peripheral adrenergic stimulation, overall” value was “effects reflecting peripheral α-adrenergic stimulation”. Also, in the data set on rats [17], the “stereotypies induced by amphetamine” value is “potentiation of the stereotypies induced by apomorphine and amphetamine”.
Take `CCCC(C(=O)OCCN(CC)CC)(c1ccccc1)c1ccccc1` [Proadifen, reference compound]: the spontaneous motility result in the data set on male mice [18] was “induces hypomotility”. Moreover, the “righting behaviour and stereotypies induced by apomorphine” value in the data set on male mice [19] (i.p., apomorphine 16 mg/kg s.c.) is on record as “Neither proadifen, nor CRL 41 152, nor their combination modify the righting behaviour”. In addition, the “body temperature, used alone” value in the data set with male mice [19] (proadifen 75 mg/kg i.p.) is recorded as “important hypothermic effect”. Moreover, in the data set with male mice [19] (proadifen 75 mg/kg i.p., apomorphine 16 mg/kg s.c.), the “hypothermia induced by apomorphine” value is “does not modify the hypothermia induced by apomorphine”.
On to `CC(=O)Nc1cccc(C(=O)C(C)NC(C)C)c1` (stereo not drawn) [CRL 41 254], for which the “immunological properties, overall” value in the data set on immunological properties is given as “beneficial immunomodulating effects”. Moreover, the “hypothermia induced by apomorphine” value with mice [5] (strong doses) is on record as “antagonism of the hypothermia induced by apomorphine”. In the data set on male mice [8], the “LD-0 (maximum non-lethal dose)” value was “greater than 256 mg/kg” and the LD-100 entry is on record as “less than or equal to 512 mg/kg”. In the data set on mice [10] (strong/high doses), the “duration of the sleep induced by barbital” value is listed as “a reduction in the duration of the sleep induced by barbital”. Moreover, the “hypothermia induced by oxotremorine” value in the data set on mice [11] (strong/high doses) is “antagonism of the hypothermia induced by apomorphine and oxotremorine”. In the data set on CNS (strong/high doses), the “overall action on the CNS” value was “modest antidepressant effects; also recorded: weak stimulant effects”. Further, the “motor activity after habituation to the enclosure” value in the data set on mice [13] (strong doses) is “a moderate resumption in the motor activity of mice accustomed to their enclosure”. Besides, in the data set with mice [14] (strong doses), the “hypothermia induced by reserpine” value is “no antagonism of the hypothermia induced by reserpine”. Moreover, in data set [20], the “immunostimulant activity, PFC IgM test” value is “statistically significant immunostimulant activity”. The “immunostimulant activity, delayed hypersensitivity” value in [21] was “statistically significant immunostimulant activity”.
